Source: US6924099B1, “Biomarkers and assays for carcinogenesis” (G.D. Searle & Co., priority 1999, dated 2005)

How the values were obtained:
[1] = system: rat liver mRNA; assay: Validation of AFLP biomarkers by rt-PCR (Taqman) in liver of phenobarbital-treated rats; format: in vivo; conditions: for Fold Change 2-week: 2 weeks phenobarbital; for Fold Change 13-week: 13 weeks phenobarbital 200 mg/kg oral gavage
Procedure: After AFLP experiments were conducted, and results analyzed, the effects of phenobarbital on the expression of several biomarkers were validated. RNA was extracted from the same liver samples used in the AFLP study, in addition to liver samples from rats treated with phenobarbital for 2-weeks, followed by reverse transcription reactions to generate cDNA, followed by PCR, using Taqman technology. The genes analyzed for phenobarbital-induced alterations, and the corresponding AFLP sequence numbers are listed in Table 5, and a graph and a chart of the actual results are in Table 6 and FIG. 1.
Eleven of the 17 (65%) genes analyzed were also determined to be differentially expressed using rt-PCR. However, this is based on comparisons at the same timepoint (13 weeks). When the rt-PCR analyses performed on the 2 week samples are considered, another marker (S-033) is found to be differentially expressed. Theoretically, differences in sensitivity and or specificity between the two techniques could be accounted for these minor discrepancies. However, S-033 is an example of how AFLP has identified biomarkers which are optimal for carcinogen detection at timepoints other than 13 weeks.

[2] = system: cellular mRNAs in rat liver; assay: AFLP-based Transcript Imaging of liver mRNAs of phenobarbital-treated rats; format: in vivo; conditions: for Fold Change AFLP: 13 weeks phenobarbital 200 mg/kg oral gavage
Procedure: Rats were treated with phenobarbital for thirteen weeks or in a separate experiment, for 5 days. Liver mRNAs were extracted and probed for those mRNAs specifically altered by phenobarbital treatment by comparing with mRNA expression in untreated rats. The relative abundance of cellular mRNAs in rat liver was determined using PE GenScope's AFLP (Amplified Fragment Length Polymorphism)-based Transcript Imaging technology. The mRNA is converted into double-stranded cDNA, which is then cut with restriction enzymes. The resulting restriction fragments are tagged with specific adapters of known sequences, which allows for subsequent amplification of the fragments under highly stringent conditions. Similar technology has been used in plants (Money. T. et al., Nucleic Acids Res. 24:2616-2617 (1996), incorporated by reference in its entirety).

[3] = system: rat liver mRNA; assay: RT-PCR of mRNAs for three phenobarbital-induced genes; conditions: oral gavage 200 mg/kg, 88 days or 5 days
Procedure: Specifically, rats were treated by oral gavage for 88 days in the 13 week experiment, or for 5 days with 200 mg/kg phenobarbital or control vehicle.

[4] = SEQ NO. 4 (Rat aldehyde dehydrogenase) mRNA
[5] = SEQ NO. 10 (Rat vitamin D-binding protein) mRNA
[6] = SEQ NO. 25 (Rat cytochrome B) mRNA
[7] = SEQ NO. 34 (Rat liver catalase) mRNA
[8] = SEQ NO. 38 (Rat alpha-2u globulin) mRNA
[9] = SEQ NO. 40 (Rat NADP-dep.isocitrate dehydrogenase) mRNA
[10] = SEQ NO. 42 (Mouse JAK1 (protein tyrosine kinase)) mRNA
[11] = SEQ NO. 46 (Rat cathepsin B) mRNA
[12] = SEQ NO. 52 ((s)-2-hydroxy acid oxidase) mRNA
[13] = SEQ NO. 92 (Rat nicotinic receptor alpha 7 subunit) mRNA
[14] = SEQ NO. 114 (Rat delta-aminolevulinate synthase) mRNA
[15] = SEQ NO. 116 (Estrogen sulfotransferase) mRNA
[16] = SEQ NO. 129 (Glutathione S-transferase) mRNA
[17] = SEQ NO. 230 (Rat carboxylesterase) mRNA

SMILES: CCC1(c2ccccc2)C(=O)NC(=O)NC1=O [phenobarbital]
- Fold Change 2-week ([1]; SEQ NO. 3 (Rat P-450) mRNA): 1.34 fold
- Fold Change 13-week ([1]; SEQ NO. 3 (Rat P-450) mRNA): 1.85 fold
- Fold Change 2-week [1, 4]: 16.36 fold
- Fold Change 13-week [1, 4]: 12.88 fold
- Fold Change 2-week ([1]; SEQ NO. 6 (Rat UDPGT1.1) mRNA): 0.93 fold
- Fold Change 13-week ([1]; SEQ NO. 6 (Rat UDPGT1.1) mRNA): 1.5 fold
- Fold Change 2-week [1, 5]: 0.66 fold
- Fold Change 13-week [1, 5]: 0.79 fold
- Fold Change 2-week [1, 6]: 1.85 fold
- Fold Change 13-week [1, 6]: 0.75 fold
- Fold Change 2-week [1, 7]: 0.79 fold
- Fold Change 13-week [1, 7]: 0.45 fold
- Fold Change 2-week [1, 8]: 0.35 fold
- Fold Change 13-week [1, 8]: 0.03 fold
- Fold Change 2-week [1, 9]: 0.88 fold
- Fold Change 13-week [1, 9]: 1.14 fold
- Fold Change 2-week [1, 10]: 0.8 fold
- Fold Change 13-week [1, 10]: 0.83 fold
- Fold Change 2-week [1, 11]: 0.87 fold
- Fold Change 13-week [1, 11]: 1.41 fold
- Fold Change 2-week [1, 12]: 0.31 fold
- Fold Change 13-week [1, 12]: 0.09 fold
- Fold Change 2-week [1, 13]: 0.45 fold
- Fold Change 13-week [1, 13]: 0.72 fold
- Fold Change 2-week [1, 14]: 1.22 fold
- Fold Change 13-week [1, 14]: 4.03 fold
- Fold Change 2-week [1, 15]: 0.81 fold
- Fold Change 13-week [1, 15]: 0.15 fold
- Fold Change 2-week [1, 16]: 2.52 fold
- Fold Change 13-week [1, 16]: 4.03 fold
- Fold Change 2-week ([1]; SEQ NO. 179 (Rat UDPGT) mRNA): 14.11 fold
- Fold Change 13-week ([1]; SEQ NO. 179 (Rat UDPGT) mRNA): 9.05 fold
- Fold Change 2-week [1, 17]: 4.24 fold
- Fold Change 13-week [1, 17]: 5.74 fold
- Down-regulation of the sequences of Table 3 (SEQ NO 419-457) ([2]; 5 weeks of treatment): at least 1.7 fold
- Up-regulation of the sequences of Table 4 (SEQ NO 458-489) ([2]; 5 weeks of treatment): at least 1.7 fold
- Down-regulation of the sequences of Table 1 (SEQ NO 275-318) ([2]; 13 weeks of treatment): at least 1.7 fold
- Up-regulation of the sequences of Table 2 (SEQ NO 319-418) ([2]; 13 weeks of treatment): at least 1.7 fold
- Fold Change AFLP ([2]; SEQ NO. 3 (Rat P-450) mRNA): 2.3 fold
- Fold Change AFLP [2, 4]: 8.2 fold
- Fold Change AFLP ([2]; SEQ NO. 6 (Rat UDPGT1.1) mRNA): 4.6 fold
- Fold Change AFLP [2, 5]: 1.7 fold
- Fold Change AFLP [2, 6]: 4.2 fold
- Fold Change AFLP [2, 7]: 16 fold
- Fold Change AFLP [2, 8]: 0.04 fold
- Fold Change AFLP [2, 9]: 2.5 fold
- Fold Change AFLP [2, 10]: 1.9 fold
- Fold Change AFLP [2, 11]: 2.3 fold
- Fold Change AFLP [2, 12]: 0.3 fold
- Fold Change AFLP [2, 13]: 6.3 fold
- Fold Change AFLP [2, 14]: 3.8 fold
- Fold Change AFLP [2, 15]: 0.32 fold
- Fold Change AFLP [2, 16]: 4 fold
- Fold Change AFLP ([2]; SEQ NO. 179 (Rat UDPGT) mRNA): 10.5 fold
- Fold Change AFLP [2, 17]: 1.3 fold
- Average expression level of P450 2B1 mRNA as compared to control rats [3]: substantial induction
